In brackets after ≈: the same amount, converted by molar mass. Entries after “also recorded” stand apart in the source; their conditions may differ. Like-named read-outs stand apart in the source and are kept apart here.
Key:
E. coli ATCC 25922 = assay: Broth microdilution MIC; assay type: cell-based; conditions: for MIC: Escherichia coli, ATCC25922; for MIC effect on E. coli: SAR effect diagram
Experimental: (§1) A broth microdilution method was utilized to explore the minimum inhibitory concentrations (MIC) of all the newly synthesized compounds against E. coli ATCC 25922 and S. aureus ATCC 25923. Test compounds were prepared using dimethyl sulfoxide (DMSO) as a stock solution, followed by serial dilutions in Mueller Hinton broth containing up to one percent DMSO. At the end, a diluted bacterial suspension from a 0.5 McFarland tube was added to all the wells (the final volume of each well was 1 × 10^5 CFU/ml). In the growth control, a culture medium with bacteria was used as a positive control, and a culture medium without bacteria was used as a negative control (sterility control). The MIC was the lowest concentration of the synthesized compounds that produced no growth on the plate. Sulfisoxazole, functioning as a sulfonamide antibiotic, and gentamicin were employed in a comparative analysis of antibacterial activity, cytotoxicity, and apoptosis assessment.

S. aureus ATCC 25923 = assay: Broth microdilution MIC; assay type: cell-based; conditions: for MIC effect on S. aureus: SAR effect diagram, Table 6; for MIC: Staphylococcus aureus, ATCC25923
Experimental: as §1

fibroblast L929 cells = assay: Cytotoxicity assay by MTT; assay type: cell-based; conditions: Mus musculus, fibroblast L929 cell line, 24 h
Experimental: MTT was applied to evaluate the cytotoxicity of the newly synthesized compounds against fibroblast L929 cells (Pasteur Institute, Tehran, Iran). Briefly, 100 μl of cell suspension (1 × 10^4 cells/well) in RPMI 1640 medium, as seeded in 96-well microplates and incubated for 24 h (37 °C, 5% CO2 air humidified). After removing the old media, 100 µl of each of the newly synthesized compounds was added to each well at different concentrations. The plates were incubated for another 24 h in the same condition. To determine the positive and negative controls, doxorubicin and DMSO were used. Cell survival was determined by adding 10 µL of an MTT solution (5 mg/ml in PBS) to each well and incubating at 37 °C for 3 h. The previous MTT-containing media was then removed, and 100 µL DMSO was pipetted into each well to dissolve the produced formazan crystals. Using an ELISA plate reader (Startfix-2100, Awareness, USA), absorbance was measured at 570 nm. By plotting the percentage of cytotoxicity versus concentration of the produced compounds, the concentrations that inhibit half of the cell population (IC50) were determined. A mean and standard deviation (SD) are used to represent the results. The percentage cell viability was calculated using the formula: Viability=Absorbance \, of \, treated \, cells-background \, absorbance(b)/Absorbance \, of \, untreated \, cells(c)-background \, absorbance(b)×100 where (b) = blank, and (c) = control.

[1] = tested on: fibroblast L929 cell line; assay: Apoptosis Annexin V binding assay (flow cytometry); assay type: cell-based; conditions: for induced cell death: L929 cells, 24 h, IC50 concentration of each compound; for apoptotic effects: at the IC50 concentration
Experimental: (§2) To detect apoptosis, the Annexin V binding assay was used. The assay was performed according to the manufacturer's instructions using a FITC Annexin V Apoptosis Detection Kit with PI from BioLegend® (San Diego, California). To conduct this test, the fibroblast L929 cell line (Pasteur Institute, Tehran, Iran) was treated with various concentrations of the newly synthesized compounds and then incubated for 24 h at 37 °C with 5% CO2. Subsequently, each well's supernatant was removed and the cells were washed with PBS. Each well was then filled with 500 μl of Annexin-binding buffer (10 mM HEPES, 140 mM NaCl, and 2.5 mM CaCl2, pH 7.4) and 10 μl of Annexin V and PI. For 15 min, the plates were incubated at room temperature and kept away from light. After incubation, using a BD FACSCalibur flow cytometer (Biosciences, San Jose, CA, USA), the cells were examined after incubation. FlowJo software (version 10.5.3, TreeStar Incorporated, Ashland, OR) was used to analyze flow cytometry data.

[2] = Apoptosis Annexin V binding assay (flow cytometry); assay type: cell-based; conditions: mouse, L929 fibroblast cells; L929, IC50 concentration, Annexin V-FITC/PI
Experimental: as §2

[3] = Table 6, antibacterial activity against E. coli, read-out: MIC for E. coli ATCC 25922
[4] = microdilution method, read-out: Minimum inhibitory concentrations (MIC) E. coli ATCC 25922
[5] = Table 7, read-out: MIC for S. aureus
[6] = microdilution method, read-out: Minimum inhibitory concentrations (MIC) S. aureus ATCC 25923

SMILES | MIC (E. coli ATCC 25922; [3]) | MIC (E. coli ATCC 25922; [4]) | MIC effect on E. coli (E. coli ATCC 25922) | MIC effect on S. aureus (S. aureus ATCC 25923) | MIC (S. aureus ATCC 25923; [5]) | MIC (S. aureus ATCC 25923; [6]) | IC50 (fibroblast L929 cells) | induced cell death [1] | viability at 24 h [2] | melting point | antibacterial effect on E. coli (MIC results) (E. coli ATCC 25922) | antibacterial effect on S. aureus (MIC results) (S. aureus ATCC 25923) | apoptotic effects [1]
COc1ccc(C2C(C#N)=C(N)Oc3cc(NS(=O)(=O)c4ccc(C)cc4)ccc32)cc1 (centres unmarked) [1b, N-[2-amino-3-cyano-4-(4-methoxy-phenyl)-4H-chromene-7-yl]-4-methyl-benzene sulfonamide] | 256 µg/mL (≈ 572 µM) | 256 µg/mL (≈ 572 µM) | Neutral | Negative | > 512 µg/mL | > 512 µg/mL | 139 µg/mL (≈ 311 µM) | 42.29% | 55% |  |  |  | 
COc1ccccc1C1C(C#N)=C(N)Oc2cc(NS(=O)(=O)c3ccc(C)cc3)ccc21 (centres unmarked) [2b, N-[2-amino-3-cyano-4-(2-methoxy-phenyl)-4H-chromene-7-yl]-4-methyl-benzene sulfonamide] | 128 µg/mL (≈ 286 µM) | 128 µg/mL (≈ 286 µM) | Positive | Negative | > 512 µg/mL | > 512 µg/mL | 229 µg/mL (≈ 512 µM) |  |  | 180 to 183 °C |  |  | 
COc1ccc(C2C(C#N)=C(N)Oc3cc(NS(=O)(=O)c4ccc(C)cc4)ccc32)cc1OC (centres unmarked) [3b, N-[2-amino-3-cyano-4-(3,4-dimethoxy-phenyl)-4H-chromene-7-yl]-4-methyl-benzene sulfonamide] | > 512 µg/mL | > 512 µg/mL | neutral or negative; also recorded: Negative | Negative | > 512 µg/mL | > 512 µg/mL | 219 µg/mL (≈ 459 µM) |  |  | 127 to 130 °C |  |  | 
Cc1ccc(S(=O)(=O)Nc2ccc3c(c2)OC(N)=C(C#N)C3c2ccc(Cl)cc2)cc1 (centres unmarked) [4b, N-[2-amino-3-cyano-4-(4-chloro-phenyl)-4H-chromene-7-yl]-4-methyl-benzene sulfonamide] | 128 µg/mL (≈ 283 µM) | 128 µg/mL (≈ 283 µM) | Positive | Neutral | 256 µg/mL (≈ 566 µM) | 256 µg/mL (≈ 566 µM) | 152 µg/mL (≈ 336 µM) | 22.2% | 77.4% |  |  |  | 
CC(=O)Nc1ccc(S(=O)(=O)Nc2ccc3c(c2)OC(N)=C(C#N)C3c2ccccc2)cc1 (centres unmarked) [5b, N-[4-(2-amino-3-cyano-4-phenyl-4H-chromen-7-ylsulfamoyl)-phenyl]-acetamide] | 128 µg/mL (≈ 278 µM) | 128 µg/mL (≈ 278 µM) | Positive | Positive | 128 µg/mL (≈ 278 µM) | 128 µg/mL (≈ 278 µM) | 173 µg/mL (≈ 376 µM) |  |  | 240 to 243 °C |  |  | 
CC(=O)Nc1ccc(S(=O)(=O)Nc2ccc3c(c2)OC(N)=C(C#N)C3c2cccc(Oc3ccccc3)c2)cc1 (centres unmarked) [6b, N-[4-[2-amino-3-cyano-4-(3-phenoxy-phenyl)-4H-chromene-7-ylsulfamoyl]-phenyl}-acetamide] | 64 µg/mL (≈ 116 µM) | 64 µg/mL (≈ 116 µM) | Positive | Neutral | 256 µg/mL (≈ 463 µM) | 256 µg/mL (≈ 463 µM) | 114 µg/mL (≈ 206 µM) | 53.85% | 46% |  | robust antibacterial effect | robust antibacterial effect | 
CC(=O)Nc1ccc(S(=O)(=O)Nc2ccc3c(c2)OC(N)=C(C#N)C3c2ccc(F)cc2)cc1 (centres unmarked) [7b, N-[4-[2-amino-3-cyano-4-(4-fluoro-phenyl)-4H-chromene-7-ylsulfamoyl]-phenyl}-acetamide] | 128 µg/mL (≈ 267 µM) | 128 µg/mL (≈ 267 µM) | Positive | Positive | 128 µg/mL (≈ 267 µM) | 128 µg/mL (≈ 267 µM) | 182 µg/mL (≈ 380 µM) |  |  | 230 to 233 °C |  |  | 
CC(=O)Nc1ccc(S(=O)(=O)Nc2ccc3c(c2)OC(N)=C(C#N)C3c2ccc(Cl)cc2)cc1 (centres unmarked) [8b, N-[4-[2-amino-3-cyano-4-(4-chloro-phenyl)-4H-chromene-7-ylsulfamoyl]-phenyl}-acetamide] | 64 µg/mL (≈ 129 µM) | 64 µg/mL (≈ 129 µM) | Positive | Positive | 32 µg/mL (≈ 64.7 µM) | 32 µg/mL (≈ 64.7 µM) | 90 µg/mL (≈ 182 µM) | 56.8% | 43.2% |  | robust antibacterial effect | robust antibacterial effect | 
COc1ccc(C2C(C#N)=C(N)Oc3cc(NS(=O)(=O)c4ccc(NC(C)=O)cc4)ccc32)cc1OC (centres unmarked) [9b, N-[4-[2-amino-3-cyano-4-(3,4-dimethoxy-phenyl)-4H-chromene-7-ylsulfamoyl]-phenyl}-acetamide] | 256 µg/mL (≈ 492 µM) | 256 µg/mL (≈ 492 µM) | neutral or negative; also recorded: Neutral | Negative | > 512 µg/mL | > 512 µg/mL | 234 µg/mL (≈ 450 µM) |  |  | 235 to 238 °C |  |  | 
CSc1ccc(C2C(C#N)=C(N)Oc3cc(NS(=O)(=O)c4ccccc4)ccc32)cc1 (centres unmarked) [10b, N-(2-amino-3-cyano-4-(4-(methylthio)phenyl)-4H-chromen-7-yl)benzenesulfonamide] | 256 µg/mL (≈ 569 µM) | 256 µg/mL (≈ 569 µM) | neutral or negative; also recorded: Neutral | Negative | > 512 µg/mL | > 512 µg/mL | 247 µg/mL (≈ 549 µM) |  |  | 135 to 138 °C |  |  | 
N#CC1=C(N)Oc2cc(NS(=O)(=O)c3ccccc3)ccc2C1c1ccccc1F (centres unmarked) [11b, N-(2-amino-3-cyano-4-(2-fluorophenyl)-4H-chromen-7-yl) benzenesulfonamide] | 256 µg/mL (≈ 607 µM) | 256 µg/mL (≈ 607 µM) | neutral or negative; also recorded: Neutral | Neutral | 256 µg/mL (≈ 607 µM) | 256 µg/mL (≈ 607 µM) | 162 µg/mL (≈ 384 µM) |  |  | 122 to 125 °C |  |  | 
CNC(C)C1CCC(N)C(OC2C(N)CC(N)C(OC3OCC(C)(O)C(NC)C3O)C2O)O1 (centres unmarked) [Gentamicin, reference compound] |  | 4 µg/mL (≈ 8.38 µM) |  |  |  | 4 µg/mL (≈ 8.38 µM) | 182 µg/mL (≈ 381 µM) |  |  |  |  |  | neither Sulfisoxazole nor Gentamicin demonstrated apoptotic effects
Cc1noc(NS(=O)(=O)c2ccc(N)cc2)c1C [Sulfisoxazole, reference compound] |  | 256 µg/mL (≈ 958 µM) |  |  |  | 256 µg/mL (≈ 958 µM) | 218 µg/mL (≈ 816 µM) |  |  |  |  |  | neither Sulfisoxazole nor Gentamicin demonstrated apoptotic effects

From paper PMC11150261, “Evaluation of antibacterial, cytotoxicity, and apoptosis activity of novel chromene-sulfonamide hybrids synthesized under solvent-free conditions and 3D-QSAR modeling studies” (Scientific Reports, 2024)
